Test results as given in ChEMBL document CHEMBL4184118, “Carbazole-containing amides and ureas: Discovery of cryptochrome modulators as antihyperglycemic agents” (Bioorg Med Chem Lett, 2018).
Values after ≈ are worked out from the molar mass of the structure shown.

Experiments:
[1] = biological target: T1, CRY2/PER2 (Homo sapiens, UniProt O15055+Q49AN0); assay: Modulation activity at CRY2/PER2 in human U2OS cells harboring per2-dLuc assessed as activation of per2 activity measured every 100 mins for 5 days by luciferase reporter gene assay; format: cell-based
T1 sequence (O15055 whole entry): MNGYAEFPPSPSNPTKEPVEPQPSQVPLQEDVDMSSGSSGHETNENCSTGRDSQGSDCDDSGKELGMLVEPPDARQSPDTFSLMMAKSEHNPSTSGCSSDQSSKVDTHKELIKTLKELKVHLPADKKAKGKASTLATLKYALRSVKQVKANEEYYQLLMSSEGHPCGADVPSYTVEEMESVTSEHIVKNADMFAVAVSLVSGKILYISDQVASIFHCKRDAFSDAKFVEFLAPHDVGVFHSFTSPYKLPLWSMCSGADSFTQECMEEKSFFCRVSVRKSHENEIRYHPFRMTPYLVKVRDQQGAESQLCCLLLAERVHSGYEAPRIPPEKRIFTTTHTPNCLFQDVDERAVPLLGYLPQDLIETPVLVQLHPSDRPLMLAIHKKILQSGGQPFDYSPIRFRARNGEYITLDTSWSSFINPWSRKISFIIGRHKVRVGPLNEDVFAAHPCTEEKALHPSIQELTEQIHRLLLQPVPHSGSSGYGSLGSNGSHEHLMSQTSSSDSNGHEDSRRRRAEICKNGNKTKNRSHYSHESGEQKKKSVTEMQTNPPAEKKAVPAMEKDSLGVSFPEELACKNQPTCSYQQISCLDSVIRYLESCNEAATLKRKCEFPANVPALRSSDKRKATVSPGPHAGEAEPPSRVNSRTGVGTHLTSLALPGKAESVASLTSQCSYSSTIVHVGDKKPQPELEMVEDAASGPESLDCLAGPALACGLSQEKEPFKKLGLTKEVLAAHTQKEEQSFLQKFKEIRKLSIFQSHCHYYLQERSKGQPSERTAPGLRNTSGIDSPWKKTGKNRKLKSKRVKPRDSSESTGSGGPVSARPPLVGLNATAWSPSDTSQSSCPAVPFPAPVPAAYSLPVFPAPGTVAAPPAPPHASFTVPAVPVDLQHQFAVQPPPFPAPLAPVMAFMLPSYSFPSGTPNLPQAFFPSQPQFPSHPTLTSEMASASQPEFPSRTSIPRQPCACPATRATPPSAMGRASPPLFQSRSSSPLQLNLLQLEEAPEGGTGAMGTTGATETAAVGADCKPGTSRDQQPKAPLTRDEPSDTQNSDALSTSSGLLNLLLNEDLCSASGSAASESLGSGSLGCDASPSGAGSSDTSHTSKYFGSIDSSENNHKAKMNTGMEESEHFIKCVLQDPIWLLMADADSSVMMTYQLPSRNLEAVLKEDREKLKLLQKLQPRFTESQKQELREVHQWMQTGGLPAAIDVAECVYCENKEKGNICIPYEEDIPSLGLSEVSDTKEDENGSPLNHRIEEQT
T1 sequence (Q49AN0 whole entry): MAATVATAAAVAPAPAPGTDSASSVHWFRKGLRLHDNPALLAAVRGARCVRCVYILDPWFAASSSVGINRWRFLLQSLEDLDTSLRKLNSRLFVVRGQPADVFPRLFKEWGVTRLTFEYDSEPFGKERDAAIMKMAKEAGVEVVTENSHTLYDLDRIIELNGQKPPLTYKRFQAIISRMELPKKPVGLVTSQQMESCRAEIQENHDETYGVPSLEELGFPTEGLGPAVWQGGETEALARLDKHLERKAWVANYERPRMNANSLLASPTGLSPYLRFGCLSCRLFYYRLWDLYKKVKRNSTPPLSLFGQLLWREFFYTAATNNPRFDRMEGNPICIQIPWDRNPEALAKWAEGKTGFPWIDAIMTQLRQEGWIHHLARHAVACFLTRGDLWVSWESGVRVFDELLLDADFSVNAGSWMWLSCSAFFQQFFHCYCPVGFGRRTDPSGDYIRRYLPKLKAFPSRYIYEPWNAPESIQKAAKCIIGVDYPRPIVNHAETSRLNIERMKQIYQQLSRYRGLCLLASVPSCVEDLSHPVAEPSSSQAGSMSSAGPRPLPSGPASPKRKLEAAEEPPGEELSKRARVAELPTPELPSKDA

[2] = Half life in db/db mouse at 30 mg/kg, po qd; format: ADME, organism-based; conditions: in vivo
[3] = MRT in db/db mouse at 30 mg/kg, po qd after 1 to 24 hrs; format: ADME, organism-based; conditions: in vivo
[4] = Kinetic solubility in simulated gastric fluid; format: physicochemical; conditions: read-out: Kinetic_solubility
[5] = Total Cmax in db/db mouse at 30 mg/kg, po qd after 1 to 24 hrs; format: ADME, organism-based; parameters: dose 30 mg/kg, route oral; conditions: in vivo
[6] = test system: Mus musculus; assay: Unbound Cmax in db/db mouse at 30 mg/kg, po qd after 1 to 24 hrs; format: ADME, organism-based; conditions: in vivo

Row | Compound | EC50 [1] | other results
1 | CC1(C)CCN(CC(O)Cn2c3ccc(F)cc3c3cc(F)ccc32)C1=O (stereo not drawn) | 164 nM | –
2 | CC1CCCN(CC(O)Cn2c3ccc(F)cc3c3cc(F)ccc32)C1=O (stereo not drawn) | 1150 nM | –
3 | O=C1CCC2CC2N1CC(O)Cn1c2ccc(F)cc2c2cc(F)ccc21 (stereo not drawn) | 565 nM | –
4 | O=C1NCCCN1CC(O)Cn1c2ccc(F)cc2c2cc(F)ccc21 (stereo not drawn) | 188 nM | half-life [2]: 2.39 h; MRT [3]: 2.98 h; solubility kinetic [4]: 85.6 µM (≈ 30.8 µg/mL); Cmax [5]: 1020 nM; fCmax [6]: 0.045 µM
5 | COC1CCC(=O)N(CC(O)Cn2c3ccc(F)cc3c3cc(F)ccc32)C1 (stereo not drawn) | 397 nM | –
6 | O=C1Cc2ccccc2CN1CC(O)Cn1c2ccc(F)cc2c2cc(F)ccc21 (stereo not drawn) | 15200 nM | –
7 | O=C1c2ccccc2CN1CC(O)Cn1c2ccc(F)cc2c2cc(F)ccc21 (stereo not drawn) | 1490 nM | –
8 | O=C1Cc2ccccc2N1CC(O)Cn1c2ccc(F)cc2c2cc(F)ccc21 (stereo not drawn) | 3730 nM | –
9 | COC1CCCN(CC(O)Cn2c3ccc(F)cc3c3cc(F)ccc32)C1=O (stereo not drawn) | 330 nM | half-life [2]: 2.16 h; MRT [3]: 2.68 h; solubility kinetic [4]: 188 µM (≈ 72.9 µg/mL); Cmax [5]: 235 nM; fCmax [6]: 0.007 µM
10 | O=C1CCCCN1CC(O)Cn1c2ccc(F)cc2c2cc(F)ccc21 (stereo not drawn) | 192 nM | –
11 | COC1CNC(=O)N(CC(O)Cn2c3ccc(F)cc3c3cc(F)ccc32)C1 (stereo not drawn) | 1120 nM | –
12 | O=C1C2CCC(C2)N1CC(O)Cn1c2ccc(F)cc2c2cc(F)ccc21 (stereo not drawn) | 163 nM | half-life [2]: 2.14 h; MRT [3]: 2.92 h; solubility kinetic [4]: 168 µM (≈ 62.2 µg/mL); Cmax [5]: 551 nM; fCmax [6]: 0.01 µM
13 | CC1CCN(CC(O)Cn2c3ccc(F)cc3c3cc(F)ccc32)C(=O)N1 (stereo not drawn) | 417 nM | –
14 | CCN1CCN(CC(O)Cn2c3ccc(F)cc3c3cc(F)ccc32)C1=O (stereo not drawn) | 1060 nM | –
15 | CC(C)N1CCCN(CC(O)Cn2c3ccc(F)cc3c3cc(F)ccc32)C1=O (stereo not drawn) | 620 nM | –
16 | O=C1C2CC2CCN1CC(O)Cn1c2ccc(F)cc2c2cc(F)ccc21 (stereo not drawn) | 167 nM | –
17 | CCN1CCCN(CC(O)Cn2c3ccc(F)cc3c3cc(F)ccc32)C1=O (stereo not drawn) | 497 nM | –
18 | CC1CCN(CC(O)Cn2c3ccc(F)cc3c3cc(F)ccc32)C(=O)C1 (stereo not drawn) | 128 nM | –
19 | O=C1c2ccccc2CCN1CC(O)Cn1c2ccc(F)cc2c2cc(F)ccc21 (stereo not drawn) | 1360 nM | –
20 | CN1CCN(CC(O)Cn2c3ccc(F)cc3c3cc(F)ccc32)C1=O (stereo not drawn) | 406 nM | –
21 | CC1CCN(CC(O)Cn2c3ccc(F)cc3c3cc(F)ccc32)C1=O (stereo not drawn) | 424 nM | –
22 | O=C1C(F)CCN1CC(O)Cn1c2ccc(F)cc2c2cc(F)ccc21 (stereo not drawn) | – | half-life [2]: 2.97 h; MRT [3]: 3.27 h; solubility kinetic [4]: 184 µM (≈ 66.7 µg/mL); Cmax [5]: 1010 nM; fCmax [6]: 0.03 µM
23 | CC1CCNC(=O)N1CC(O)Cn1c2ccc(F)cc2c2cc(F)ccc21 (stereo not drawn) | 742 nM | –
24 | O=C1OCCCN1CC(O)Cn1c2ccc(F)cc2c2cc(F)ccc21 (stereo not drawn) | 4980 nM | –
25 | O=C1N(CC(O)Cn2c3ccc(F)cc3c3cc(F)ccc32)CCCC1(F)F (stereo not drawn) | 194 nM | –
26 | CC1(C)CCCN(CC(O)Cn2c3ccc(F)cc3c3cc(F)ccc32)C1=O (stereo not drawn) | 463 nM | –
27 | CC1CCC(=O)N(CC(O)Cn2c3ccc(F)cc3c3cc(F)ccc32)C1 (stereo not drawn) | 224 nM | –

Row | Compound | EC50 [1] | other results
28 | CC1CNC(=O)N(CC(O)Cn2c3ccc(F)cc3c3cc(F)ccc32)C1 (stereo not drawn) | 833 nM | –
29 | O=C1COCCN1CC(O)Cn1c2ccc(F)cc2c2cc(F)ccc21 (stereo not drawn) | 447 nM | –
30 | O=C1OCCN1CC(O)Cn1c2ccc(F)cc2c2cc(F)ccc21 (stereo not drawn) | 9770 nM | –
31 | CC(C)N1CCN(CC(O)Cn2c3ccc(F)cc3c3cc(F)ccc32)C1=O (stereo not drawn) | 605 nM | –
32 | O=C1C(c2ccccc2)CCCN1CC(O)Cn1c2ccc(F)cc2c2cc(F)ccc21 (stereo not drawn) | 547 nM | –
33 | CC1CCC(=O)N1CC(O)Cn1c2ccc(F)cc2c2cc(F)ccc21 (stereo not drawn) | 199 nM | –
34 | CC1CNC(=O)N1CC(O)Cn1c2ccc(F)cc2c2cc(F)ccc21 (stereo not drawn) | 1190 nM | –
35 | CCC1CCN(CC(O)Cn2c3ccc(F)cc3c3cc(F)ccc32)C1=O (stereo not drawn) | 417 nM | –
36 | CN1CCCN(CC(O)Cn2c3ccc(F)cc3c3cc(F)ccc32)C1=O (stereo not drawn) | 719 nM | half-life [2]: 2.57 h; MRT [3]: 3.51 h; solubility kinetic [4]: 162 µM (≈ 60.4 µg/mL); Cmax [5]: 63 nM; fCmax [6]: 0.002 µM
37 | CS(=O)(=O)N(Cc1ccco1)CC(O)Cn1c2ccccc2c2ccccc21 (stereo not drawn) | 870 nM | –
38 | O=C1N(CC(O)Cn2c3ccc(F)cc3c3cc(F)ccc32)CCCN1c1ccccc1 (stereo not drawn) | 171 nM | –
39 | O=C1N(CC(O)Cn2c3ccc(F)cc3c3cc(F)ccc32)CCN1c1ccccc1 (stereo not drawn) | 528 nM | –
40 | CC1CC(=O)N(CC(O)Cn2c3ccc(F)cc3c3cc(F)ccc32)C1 (stereo not drawn) | 1030 nM | –
41 | CC(C)C1CCCN(CC(O)Cn2c3ccc(F)cc3c3cc(F)ccc32)C1=O (stereo not drawn) | 79 nM | –
42 | CC1CCCC(=O)N1CC(O)Cn1c2ccc(F)cc2c2cc(F)ccc21 (stereo not drawn) | 541 nM | –
43 | CC(C)C1CCN(CC(O)Cn2c3ccc(F)cc3c3cc(F)ccc32)C1=O (stereo not drawn) | 261 nM | –
44 | O=C1C2CC2CN1CC(O)Cn1c2ccc(F)cc2c2cc(F)ccc21 (stereo not drawn) | 246 nM | –
45 | O=C1C(c2ccccc2)CCN1CC(O)Cn1c2ccc(F)cc2c2cc(F)ccc21 (stereo not drawn) | 487 nM | –
46 | O=C1CCc2ccccc2N1CC(O)Cn1c2ccc(F)cc2c2cc(F)ccc21 (stereo not drawn) | 7430 nM | –
47 | O=C1CC2CC2CN1CC(O)Cn1c2ccc(F)cc2c2cc(F)ccc21 (stereo not drawn) | 149 nM | –
48 | CC1CN(CC(O)Cn2c3ccc(F)cc3c3cc(F)ccc32)C(=O)N1 (stereo not drawn) | 667 nM | half-life [2]: 2.58 h; MRT [3]: 4.16 h; solubility kinetic [4]: 181 µM (≈ 64.9 µg/mL); Cmax [5]: 557 nM; fCmax [6]: 0.01 µM
49 | O=C1C(F)CCCN1CC(O)Cn1c2ccc(F)cc2c2cc(F)ccc21 (stereo not drawn) | 79 nM | –
50 | COC1CC(=O)N(CC(O)Cn2c3ccc(F)cc3c3cc(F)ccc32)C1 (stereo not drawn) | 1140 nM | –
51 | O=C1CCCN1CC(O)Cn1c2ccc(F)cc2c2cc(F)ccc21 (stereo not drawn) | 625 nM | half-life [2]: 2.95 h; MRT [3]: 3.32 h; solubility kinetic [4]: 148 µM (≈ 51.1 µg/mL); Cmax [5]: 415 nM; fCmax [6]: 0.011 µM
52 | O=C1N(CC(O)Cn2c3ccc(F)cc3c3cc(F)ccc32)CCC1(F)F (stereo not drawn) | 716 nM | –
53 | COC1CCN(CC(O)Cn2c3ccc(F)cc3c3cc(F)ccc32)C1=O (stereo not drawn) | 855 nM | –
54 | CCC1CCCN(CC(O)Cn2c3ccc(F)cc3c3cc(F)ccc32)C1=O (stereo not drawn) | 332 nM | –
